# Measurements: patent publication US20210154271A1, “CORNEAL EPITHELIAL CELL CHEMOTAXIS PROMOTER” (SHIODA LIFE SCIENCE INC., priority 2018, published 2021)
# Ends that are not written are not given here.
# Key:
# HCEC-II cells [1] = assay: Analysis of cell growth ability (MTT-assay); format: cell-based, human
# Procedure: (§1) Normal human corneal epithelial cells HCEC-II (manufactured by Kurabo Industries Ltd.) were cultured in an OcuLifeBM medium containing OcuLifeLifeFactor (both manufactured by Kurashiki Spinning Co., Ltd.) at 37° C., in the presence of 5% CO2.
# HCEC-II cells were seeded in 96-well plates and cultured for 24 h. Subsequently, PACAP alone, or PACAP and AraC (cytarabine) were added. AraC (cytarabine) is a cytostatic agent. After the addition of these agents, the cell growth ability was analyzed by measuring the number of live cells from the value of absorbance at 570 nm using MTT cell growth kit I (manufactured by Roche Life Science Co., Ltd.). The reference wavelength was set at 650 nm.
# The effects of PACAP are either due to 1) promoting cell growth, 2) promoting cell chemotaxis, or 3) promoting both cell growth and chemotaxis. To elucidate which of these could be caused, cell growth on days 1 and 4 after adding various concentrations of PACAP (10^−9 M to 10^−13 M) were analyzed by MTT-assay.
# [2] = test system: model mice with injured corneas; assay: Instillation of PACAP receptor antagonists on model mice with injured corneas; format: in vivo, mouse
# Excerpt: Next, to investigate which types of receptors are involved in healing-promoting effects of injured corneas by PACAP, the inventors performed an instillation experiment of PACAP receptor antagonists (PACAP6-38, VIP6-28). PACAP6-38 is an antagonist of PAC1R and VPAC2R. VIP6-28 is an antagonist of VPAC1R and VPAC2R.
# In addition to the same operations as the instillation experiment in Example 5, PACAP6-38 (antagonist) (10^−9 M) or VIP6-28 (antagonist) (10^−9 M) was instilled immediately before instillation of PACAP and saline. Instillation of PACAP and saline ware performed every 2 hours.
# Following four groups were created; the saline-only-instilled group, the PACAP-only-instilled group, the group instilled saline and an antagonist simultaneously, the group instilled PACAP and an antagonist simultaneously.
# FIG. 10A is the result of PACAP6-38, and FIG. 10B is the result of VIP6-28. In FIG. 10, “saline” indicates the saline-only-instilled group. “PACAP” indicates the PACAP-only-instilled group. “PACAP6-38” or “VIP6-28” indicates the group instilled saline and an antagonist simultaneously. “PACAP6-38+PACAP” or “VIP6-28+PACAP” indicates the group instilled PACAP and an antagonist simultaneously.
# As well as FIG. 9C, the area of the injured site of the cornea immediately after injury to the cornea (0 hour) is set as 100%.
# [3] = test system: Normal human corneal epithelial cells HCEC-II; assay: Scratch assay on HCEC-II cells; format: cell-based
# Procedure: as §1
# Wound-healing-promoting effects of PACAP were evaluated by scratch assay. HCEC-II cells were seeded in 24-well plates, cultured, and then wounded by a CELL Scratcher scratch stick (manufactured by Asahi Glass Co., Ltd.) (between a dotted line and a dotted line in FIG. 1).
# Immediately after wounding, PACAP38 alone or PACAP38 and AraC were added, and cells infiltrating the wounded area were observed.
# (§2) Outcomes of scratch assay and BrdU labeling were evaluated as following. Images were acquired by BZ-X700 (Keyence Inc.), and then quantitatively analyzed using the analysis applications (hybrid cell counts, macro cell counts) (Keyence Inc.).
# HCEC-II cells [4] = assay: BrdU labeling of dividing cells; format: cell-based, human; conditions: 18 hours after adding PACAP (FIGS. 4A, 4B and 5)
# Procedure: Post-wounding dividing cells were observed by labeling with BrdU Labeling and Detection Kit I (Roche).
# as §2
# [5] = test system: model mice with injured corneas; assay: PACAP instillation on model mice with injured corneas; format: in vivo, mouse (C57BL/6J)
# Procedure: To study the healing effects of PACAP instillation on an injured site of a corneal, the inventors created model mice with injured corneas. Injured sites were created by marking a cornea of a mouse (C57BL/6J, male, 8-12 weeks old) with a 1-mm-diameter biopsy punch and detaching corneal epithelia within the marks with tweezers. At the injured sites, 2 μL of 10^−9 M PACAP, 10^−11 M PACAP, 10^−13 M PACAP, or saline was instilled every 2 hours for a total of seven times up to 12 hours later. In addition, the injured sites were visualized by instilling 2 μL of 0.1% fluorescein (a fluorescent colorant) in a total of 3 times after 0, 12, and 24 hours, and photographing was performed.
# In addition, eyeballs at after 0 and 12 hours were removed, and tissue sections were made after paraffin embedding, followed by hematoxylin and eosin staining (HE staining). From the captured fluorescent images, by using image analysis software (ImageJ), the area and the outer periphery of injured sites of corneas were measured when saline was instilled and when PACAP of the respective concentrations were instilled.
# (§3) The area of the injured site of the cornea immediately after injury to the cornea (0 hour) is set as 100%.
# [6] = test system: mice with lacrimal glands removed, injured corneas; assay: Corneal healing in mice with lacrimal glands removed; format: in vivo, mouse; conditions: LG−PACAP vs LG−saline, 10^−11 M PACAP, 12 hours after injuring, p<0.05 (FIG. 11)
# Excerpt: (§4) First, mice with lacrimal glands removed were generated. Under inhalation anesthesia with sevoflurane, the extraorbital lacrimal glands and lacrimal ducts of mice were removed. Both lacrimal glands were removed after the lacrimal ducts were removed to expose the intraorbital lacrimal glands. Then the skin was sutured and the mice were kept warm until awaking from anesthesia. The amount of tear secretion in mice before and after removal of lacrimal glands was confirmed by the cotton thread method.
# FIG. 11 is a graph showing the measurement result of the area of injured sites of corneas (fluorescent area) of upon administration of saline or PACAP at 0, 12, and 24 hours after injuring of corneas of mice. The method and the frequency of administration of saline or PACAP were the same as in Example 5.
# as §3
# In FIG. 11, “LG+saline” indicates the result of saline administration to mice without lacrimal glands removed. “LG+PACAP” indicates the result of PACAP administration to mice without lacrimal glands removed. “LG−saline” indicates the result of saline administration to mice with lacrimal glands removed. “LG−PACAP” indicates the result of PACAP administration to mice with lacrimal glands removed. The concentration of PACAP is 10^−11 M.
# [7] = test system: mice with lacrimal glands removed; assay: Tear secretion by the cotton thread method; format: in vivo, mouse; conditions: mice with lacrimal glands removed (not shown in figures)
# Excerpt: as §4
# [8] = test system: SV40-human corneal epithelial cell line (HCEC); assay: In vitro scratch assay on monolayer sheets of human corneal cultured cells; format: cell-based; conditions: 10^−11 M PACAP, 6 hours after scratching, vs PBS-treated control group (FIG. 12B)
# Procedure: To evaluate the corneal healing effects of PACAP in vitro, a scratch assay was performed using a human corneal epithelial cell line. A SV40-human corneal epithelial cell line (HCEC) was purchased from the Human Science Research Resource Bank (Health Science Research Resources Bank). Cells were cultured in a medium containing DMEM, 1×antibiotic-antifungal agent (manufactured by Thermo Fisher Scientific Co., Ltd.), and 10% fetal bovine serum (FBS). Cultures were performed at 37° C. in the presence of 5% CO2.
# In invasion assays, a floating HCEC with 10^6 cells was seeded in 12-well plates. After 2 days of incubation, the confluent cell layer was cross-shaped wounded with plastic sticks. PBS or various types of PACAP (final concentrations: 10^−15 M, 10^−13 M, 10^−11 M, 10^−9 M, and 10^−7 M) were added to […]. Scratch sites (wounded sites) were photographed by Nicon Biostation CT (Nikon Co., Ltd.) at regular intervals. Areas of the scratch sites were measured by CL-Quant software (made by Nikon Inc.).
# The area of the scratch site immediately after the scratch (0 hour) is set as 100%.
# [9] = test system: eye of a rabbit with detached corneas; conditions: PACAP administered to eye, in comparison with controls; cited from earlier work
# [10] = 10^−9 M PACAP and 15 μM AraC (FIG. 1A to C)
molecule,measurement,setting,value
"Nc1ccn([C@@H]2O[C@H](CO)[C@@H](O)[C@@H]2O)c(=O)n1 [AraC, cytarabine, reference compound]",effect of AraC on the cell-growth-promoting effects of PACAP,HCEC-II cells [1]; 15 μM AraC,almost completely suppressed
"PACAP6-38: PACAP receptor antagonist; antagonist of PAC1R and VPAC2R (FTDSYSRYRKQMAVKKYLAAVLGKRYKQRVKNK; ends and bridges not checked; UniProt P18509 137-169, looked up, fragment)",effect of antagonist on PACAP-induced healing of injured corneas,"[2]; antagonist 10^−9 M instilled with PACAP, 12 hours after injuring, vs PACAP-only group, p<0.05 (FIG. 10A)",significantly suppressed
"PACAP: Pituitary Adenylate Cyclase-Activating Polypeptide; PACAP38, 38 amino acid residues (Peptide Research Institute, Osaka) (HSDGIFTDSYSRYRKQMAVKKYLAAVLGKRYKQRVKNK; ends and bridges not checked; UniProt P18509 132-169, looked up)",cell-infiltration compared with 10^−9 M PACAP alone,[3]; [10],less
same,cell-infiltration compared with controls,[3]; [10],increased more than in controls
same,area of the wounded site at 18 h,"[3]; 10^−9 M PACAP in the presence of 15 μM AraC, compared to the control (FIG. 6)",increased
same,cellular infiltrates at the wounded site,"[3]; 10^−9 M PACAP, 4 days post-wounding, compared to controls (FIG. 1A, B)",more cellular infiltrates were observed at the wounded site
same,area of the wounded site,"[3]; 10^−9 M PACAP, compared to controls (FIG. 2, 18 h)",reduced
same,area of the wounded site at 18 h,[3]; 10^−11 M PACAP in the presence of 15 μM AraC (FIG. 6),reduced
same,cell growth by MTT-assay,"HCEC-II cells [1]; 1 day after addition, 10^−9 M to 10^−13 M PACAP, relative to cells with no PACAP (FIG. 3)",cells grew at any concentration
same,cell growth by MTT-assay,"HCEC-II cells [1]; 4 days after addition, 10^−9 M to 10^−13 M PACAP (FIG. 3)",the effect was remarkable
same,number of BrdU positive (dividing) cells,HCEC-II cells [4],an increase of number of BrdU positive cells
same,area of the injured site of the cornea (fluorescent area),"[5]; 10^−9 M PACAP instilled, 12 hours after injuring, vs saline group (FIG. 9C)",significantly smaller
same,periphery of the injured site of the cornea,"[5]; 10^−9 M PACAP instilled, 12 hours after injuring, vs saline group (not shown in figures)",significantly smaller
same,area of the injured site of the cornea (fluorescent area),"[5]; 10^−11 M PACAP instilled, 12 hours after injuring, vs saline group (FIG. 9C)",significantly smaller
same,periphery of the injured site of the cornea,"[5]; 10^−11 M PACAP instilled, 12 hours after injuring, vs saline group (not shown in figures)",significantly smaller
same,size of injured sites of corneas (fluorescence image),"[5]; 12 and 24 hours after injuring, PACAP-instilled vs saline-instilled group (FIG. 9A)",became smaller than those of the saline-instilled group
same,corneal epithelium in HE staining,[5]; 12 hours after instillation (FIG. 9B),the corneal epithelium was restored
same,area of the injured site of the cornea (fluorescent area),"[5]; all concentrations (10^−9, 10^−11, 10^−13 M), 24 hours after injuring, p<0.01 vs saline group (FIG. 9C)",significantly smaller
same,periphery of the injured site of the cornea,"[5]; all concentrations, 24 hours after injuring (not shown in figures)",significantly smaller
same,most effective concentration of PACAP,"[5]; instillation, injured cornea area",10^−11 M
same,area of injured sites of corneas (fluorescent area),[6],became significantly smaller
same,tear secretion after instillation,[7],did not promote tear secretion
same,area of the scratch site,[8],significantly reduced
same,restoration of corneal epithelium,[9],accelerated
"VIP6-28: PACAP receptor antagonist; antagonist of VPAC1R and VPAC2R (FTDNYTRLRKQMAVKKYLNSILN; ends and bridges not checked; UniProt P01282 130-152, looked up, fragment)",effect of antagonist on PACAP-induced healing of injured corneas,[2]; antagonist 10^−9 M instilled with PACAP (FIG. 10B),not suppressed
